Values after ≈ are worked out from the molar mass of the structure shown.

Data set [1] concerns different strains of H. pylori. Set-up: method as in PMID 31383920. The conditions noted are these: including metronidazole- and clarithromycin-resistant strains; cited from earlier work.
Data set [2] deals with T1, H. pylori HsrA response regulator (Helicobacter pylori, UniProt O25684). Set-up: method as in PMID 31383920. The conditions noted are these: previous work; cited from earlier work.
In data set [3] the test system is H. pylori ATCC 43504 (metronidazole-resistant). In words: MIC/MBC by broth microdilution, strain ATCC 43504 (MTZ-R). The data set is classed as cell-based. The conditions noted are these: Helicobacter pylori; for MBC: ATCC43504; for MIC: ATCC43504, 72 h. Background: Dilution methods test growth across graded concentrations, often in twofold steps.
Data set [4] has as its system H. pylori ATCC 700684 (clarithromycin resistant). Nature of the data set: MIC/MBC by broth microdilution, strain ATCC 700684 (CLR-R). The conditions noted are these: Helicobacter pylori; for MBC: ATCC700684; for MIC: ATCC700684, 72 h. The data set is classed as cell-based.
Data set [5] has as its system H. pylori strain ATCC 700684. Nature of the data set: Time-kill kinetics assay. The class given is cell-based, Helicobacter pylori. The conditions noted are these: 2 × MIC. On the procedure: Time–kill curves for selected DHP drugs were determined using the H. pylori strain ATCC 700684 [17]. […] DMSO instead of drugs was included as control. Colony forming units (CFUs) were determined after 4, 8, and 24 h of drug exposition by culturing on Blood Agar Base No.2 supplemented with 8% defibrinated horse blood for 72 h under microaerobic conditions. Each determination was performed twice in triplicate and the results were presented as log10 CFU/mL versus incubation time. Statistical analysis was performed using the Mann–Whitney U test. A p value smaller than 0.05 was considered significant.

For data set [6], the system named is H. pylori ATCC 700392. Nature of the data set: MIC/MBC by broth microdilution, strain ATCC 700392. The data set is classed as cell-based. The conditions noted are these: Helicobacter pylori, ATCC700392; for MBC: ATCC 700392; for MIC: ATCC 700392, 72 h.
The target of data set [7] is T1, H. pylori HsrA response regulator. Nature of the data set: biochemical. The class given is binding. On the procedure: Thermodynamic parameters of the molecular interaction between HsrA and its DHP-class inhibitors were analyzed by isothermal titration calorimetry (ITC) using an AutoiTC200 calorimeter (MicroCal, Malvern Instruments, Malvern, Worcestershire, UK). A solution of 20 µM of the protein in 50 mM Tris-HCl [pH 8], 150 mM NaCl, 10% glycerol, 1% DMSO was titrated with 200 µM of the corresponding ligand (DHP) dissolved in the same buffer at 25 °C. A total of 19 injections of 2 μL was added sequentially to the sample cell after 150 s spacing to ensure that the thermal power returned to the baseline before the next injection. Dissociation constants and binding enthalpies were calculated by non-linear least squares regression data analysis using the software package Origin 7.0 (OriginLab, Northampton, MA, USA).

For data set [8] the target is unchanged. The class given is biochemical. The conditions noted are these: EMSA. On the procedure: The in vitro biological activity of the H. pylori HsrA response regulator and its potential inhibition by DHP drugs were assessed by electrophoretic mobility shift assay (EMSA) as previously described. Briefly, 120 ng of target DNA (promoter region of the H. pylori porGDAB operon) was mixed with 6 µM of recombinant HsrA [17] in the presence of increasing concentrations (0.1 to 2 mM) of selected DHP drugs. Mixtures of DNA and protein in a 20 μL reaction volume containing 10 mM bis-Tris (pH 7.5), 40 mM KCl, 100 mg/L BSA, 1 mM DTT and 5% glycerol were incubated at room temperature for 20 min and then separated by 6% native polyacrylamide gel electrophoresis. A 150 bp fragment of the Anabaena sp. PCC 7120 gene pkn22 was included as non-specific competitor DNA in all assays. EMSA gels were stained with SYBR Safe® (Thermo Fisher Scientific, Bothell, WA, USA) and analyzed using the Bio-Rad Gel Doc 2000 imaging system.
A general note: In EMSA bound probe runs differently from free probe, usually more slowly.

For data set [9], the system named is Mouse. The conditions noted are these: ref PubChem; cited from earlier work.

T1 sequence (O25684 entry or part of it): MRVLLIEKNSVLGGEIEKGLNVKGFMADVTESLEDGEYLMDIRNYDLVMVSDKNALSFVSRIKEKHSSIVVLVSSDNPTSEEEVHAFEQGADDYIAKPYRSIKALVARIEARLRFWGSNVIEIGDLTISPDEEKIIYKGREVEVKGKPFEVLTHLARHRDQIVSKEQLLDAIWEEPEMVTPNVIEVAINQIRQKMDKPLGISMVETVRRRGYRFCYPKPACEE

In the case of `O=c1c(O)c(-c2ccc(O)cc2)oc2cc(O)cc(O)c12` [kaempferol], in data set [1], the “Bactericidal activity against different strains of H. pylori” value was “strong bactericidal activities”. In addition, the “Inhibition of the biological activity of HsrA” value in data set [2] is recorded as “noticeably inhibited”.
What is called MBC is the lowest tested concentration that kills the bacteria rather than only halting them. A lower MBC goes with more potent killing. As a reminder, the MIC is the lowest concentration that inhibits growth of the organism. In the case of `COC(=O)C1=C(C)NC(C)=C(C(=O)OC)C1c1ccccc1[N+](=O)[O-]` [Nifedipine], the MBC in data set [3] came out at 16 µg/mL (≈ 46.2 µM); in data set [4], 8 µg/mL (≈ 23.1 µM); in [6] it was 8 µg/mL (≈ 23.1 µM). Besides, the figures for the minimal inhibitory concentration (MIC) in [3], in [4] and in data set [6] were 16 µg/mL (≈ 46.2 µM), 8 µg/mL (≈ 23.1 µM) and 8 µg/mL (≈ 23.1 µM), respectively. Also, in data set [5], the “Decline in bacterial counts (time-kill kinetics) compared to other DHPs” value was “significantly slower”.
`CC[C@H]1OC(=O)[C@H](C)[C@@H](O[C@H]2C[C@@](C)(OC)[C@@H](O)[C@H](C)O2)[C@H](C)[C@@H](O[C@@H]2O[C@H](C)C[C@H](N(C)C)[C@H]2O)[C@](C)(OC)C[C@@H](C)C(=O)[C@H](C)[C@@H](O)[C@]1(C)O` [Clarithromycin]: the MBC in [3] was no more than 0.12 µg/mL; in [4], 32 µg/mL (≈ 42.8 µM); in data set [6] it was no more than 0.12 µg/mL. The MIC was no more than 0.12 µg/mL in data set [3], 16 µg/mL (≈ 21.4 µM) in [4] and no more than 0.12 µg/mL in data set [6].
`COc1ccc([C@@H]2CC(=O)c3c(O)cc(O)cc3O2)cc1O` [hesperetin]: the “Bactericidal activity against different strains of H. pylori” value in data set [1] was “strong bactericidal activities”. In addition, in data set [2], the “Inhibition of the biological activity of HsrA” value is recorded as “noticeably inhibited”.
For orientation: Kd means the free concentration of one partner at which half of the binding sites on the other are occupied at equilibrium, for simple one-to-one binding. `COC(=O)C1=C(C)NC(C)=C(C(=O)OCC(C)C)C1c1ccccc1[N+](=O)[O-]` (stereo not drawn) [Nisoldipine] registered a Kd in data set [7] of 11 µM. Moreover, in data set [7] (ITC, 25 °C, pH 8, absolute error 0.06), the “n (binding stoichiometry)” value is reported as 0.70. The molecule also gave a ΔG in [7] (ITC, 25 °C, pH 8, absolute error 0.2 kcal/mol) of -6.8 kcal/mol. Moreover, the ΔH in data set [7] (ITC, 25 °C, pH 8, absolute error 0.4 kcal/mol) is -2.2 kcal/mol. Besides, the MBC came out at 16 µg/mL (≈ 41.2 µM) in data set [3], 4 µg/mL (≈ 10.3 µM) in data set [4] and 4 µg/mL (≈ 10.3 µM) in [6]. For the same molecule, the figures for the MIC in data set [3], in data set [4] and in data set [6] were 16 µg/mL (≈ 41.2 µM), 4 µg/mL (≈ 10.3 µM) and 4 µg/mL (≈ 10.3 µM), respectively. In data set [8] (6 µM HsrA, 120 ng target promoter, 0.1 to 2 mM DHP), the “Inhibition of the DNA binding activity of HsrA” value is given as “noticeably inhibited”. For the same molecule, the “Inhibition of HsrA activity at 100 μM” value in [8] (100 μM drug, 6 μM HsrA) is “partially inhibited”. Besides, in [5], the “Decline in bacterial counts (time-kill kinetics) compared to other DHPs” value is “significantly faster”. In addition, the “Killing effect after 4 h of exposition” value in [5] (4 h) is “completely lethal”. For the same molecule, in data set [9], the “Mouse LD50 (mg/kg, oral)” value is listed as 411 mg/kg.
For the molecule `O=c1cc(-c2ccc(O)cc2)oc2cc(O)cc(O)c12` [apigenin], the “Bactericidal activity against different strains of H. pylori” value in data set [1] is listed as “strong bactericidal activities”. Besides, in data set [2], the “Inhibition of the biological activity of HsrA” value is reported as “noticeably inhibited”.
For `Cc1ncc([N+](=O)[O-])n1CCO` [Metronidazole], the results for the MBC in data set [3], in [4] and in [6] were 128 µg/mL (≈ 748 µM), 2 µg/mL (≈ 11.7 µM) and 2 µg/mL (≈ 11.7 µM), respectively. Besides, the MIC in data set [3] came to 64 µg/mL (≈ 374 µM); in [4], 1 µg/mL (≈ 5.84 µM); in data set [6], 1 µg/mL (≈ 5.84 µM).
On to `O=c1cc(-c2ccccc2)oc2cc(O)cc(O)c12` [chrysin], for which, in data set [1], the “Bactericidal activity against different strains of H. pylori” value is recorded as “strong bactericidal activities”. In data set [2], the “Inhibition of the biological activity of HsrA” value is reported as “noticeably inhibited”.

Source of the values: article PMC6969910, “Repurposing Dihydropyridines for Treatment of Helicobacter pylori Infection” (Pharmaceutics, 2019).
